The text below walks through data of patent publication US9708247B2, “Modulators of the eIF2alpha pathway” (The Regents of the University of California, priority 2013, dated 2017).

“Also recorded” adds a separate entry of the source.

One experiment concerns RPMI 8226 cells. In words: Multiple myeloma xenograft model (RPMI 8226, BALB/c scid mice). The format is in vivo, mouse. Particulars: 5 mg/kg orally, daily.
Another experiment concerns caspase 3/7. In words: Caspase 3/7 activation in Hela cells. In kind it is cell-based, human. Particulars: tunicamycin or thapsigargin plus 25 nM ISRIB. The procedure:
FIGS. 5A-5D. […]
Hela cells were plated in 96 well Corning plates at 0.4×10^4 cells/well 24 hours prior to imaging. […] In order to quantify the total number of cells, Vybrant DyeCycle Green staining solution (1 μM) was added directly to the well immediately after the final Caspase-3/7 scan and incubated for 1 h prior to acquiring final images. Data was analyzed using IncuCyte analysis software.

The next experiment relates to global translation. The experiment can be described thus: Metabolic labeling (35S-methionine incorporation) in HEK293T cells. The format is cell-based, human. The conditions noted are these: 100 nM thapsigargin plus 200 nM ISRIB. The procedure:
HEK293T cells were seeded on 12 well plates, allowed to recover overnight and treated for the indicated times with the indicated compounds. The cells were subsequently switched to media lacking methionine and cysteine supplemented with the indicated compounds and 50 μCi of ^35S-methionine (Perkin Elmer) for 20 min. Cells were lysed by addition of SDS-PAGE loading buffer. Lysates were sonicated and equal amounts were loaded on SDS-PAGE gels (BioRad). The gel was dried and radioactive methionine incorporation was detected by exposure to a phosphor-screen and visualized with a Typhoon 9400 Variable Mode Imager (GE Healthcare).

Another experiment has as its system CHOP. In words: CHOP immunofluorescence in U2OS cells. In kind it is cell-based, human. The conditions noted are these: 100 nM thapsigargin 2 h, 200 nM ISRIB. The protocol: FIGS. 4A-4B. ISRIB impairs induction of the transcriptional network controlled by ATF4; (FIG. 4A) ER-stress dependent induction of CHOP and GADD34 mRNA is impaired in cells treated with ISRIB; qPCR analysis of total RNA extracted from U2OS cells treated with 2 μg/ml of tunicamycin in the presence or absence of 200 nM ISRIB for the indicated times; mRNA levels for each sample were normalized to GAPDH (N=4); P values are derived from a one tail Student's t-test for unpaired samples; statistical significance: CHOP, P=0.0006 (*); GADD34, P=0.0008 (*); (FIG. 4B) ISRIB blocks CHOP production during ER stress; an immunofluorescence analysis of U2OS cells treated with 100 nM thapsigargin for 2 h in the presence or absence of 200 nM ISRIB is shown; a secondary Alexa Dye 488 anti-mouse antibody and rhodamine-phalloidin were used to visualize CHOP and actin, respectively.
U2OS cells were seeded on Slide Flasks (Thermo Scientific) 18 h prior to processing for immunofluorescence. Cells (60% confluent) were fixed with 4% paraformaldehyde in PBS for 15 min. The cells were then rinsed 3 times with PBS and permeabilized with 0.3% Triton X-100. The fixed cells were rinsed 3 times with PBS and blocked for 1 h at room temperature in PBS supplemented with 0.1% Triton X-100 and 5% normal goat serum. […]

For experiment [1], the system named is PERK signaling (ATF4, PERK, XBP1s). In words: Immunoblot analysis of PERK, ATF4 and XBP1s in HEK293T cells. The format is cell-based, human. The procedure:
Cells were lysed in SDS-PAGE loading buffer (1% SDS, 62.5 mM Tris-HCl pH 6.8, 10% glycerol). Lysates were sonicated and equal amounts were loaded on SDS-PAGE gels (BioRad). Proteins were transferred onto nitrocellulose and probed with primary antibodies diluted in Tris-buffered saline supplemented with 0.1% Tween 20 and 5% bovine serum albumin. The following antibodies were used: CREB-2 (C-20) (1:800) (Santa Cruz Biotechnologies); PERK (D11A8) (1:1000), PERK (C33E10) (1:1000), eIF2α (9722) (1:1000), phospho-eIF2α (Ser51) (D9G8) XP (3398) (1:1000) (Cell Signaling Technology); XBP1s (C-terminus) (1:500) (BioLegend); M2 Flag (1:1000) (Sigma). An HRP-conjugated secondary antibody (Amersham) was employed to detect immune-reactive bands using enhanced chemiluminescence (SuperSignal, Thermo Scientific).
In general terms: A western blot detects proteins with antibodies after separation by electrophoresis.

`O=C(COc1ccc(Cl)cc1)NC1CCC(NC(=O)COc2ccc(Cl)cc2)CC1` (stereo not drawn) [ISRIB]: in the experiment with RPMI 8226 cells, the “tumor growth / tumor size vs vehicle (in words)” value is “significant difference in tumor size; also recorded: significant reduction in the rate of tumor growth”. In addition, in the experiment with RPMI 8226 cells (26 days of dosing), the “reduction in tumor size at the endpoint of the study” value was found to be 50%. The “activity of caspases 3 and/or 7” value in the experiment on caspase 3/7 is recorded as “significantly induced”. Moreover, the “effect on thapsigargin-induced drop in translation” value with global translation was “abolished”. The “CHOP accumulation after induction of ER stress” value in the experiment on CHOP is “no CHOP accumulation”. In addition, the “XBP1 mRNA splicing and XBP1s production (IRE1 branch)” value in experiment [1] (ER stress plus 200 nM ISRIB) is reported as “persisted”. Moreover, the “PERK phosphorylation (mobility shift)” value in experiment [1] (ER-stressed HEK293T, 200 nM ISRIB) was “did not inhibit the mobility shift of PERK”. For the same compound, the “ATF4 induction after GCN2 or HRI activation” value in experiment [1] (HEK293T, cysteine/methionine starvation or HRI activator 6 μM, 5 h, 200 nM ISRIB) is listed as “blocked ATF4 induction”. The “production of endogenous ATF4 upon ER stress” value in experiment [1] (HEK293T, tunicamycin or thapsigargin, 200 nM ISRIB, 3 h) is “blocked production of endogenous ATF4”.
